One data set relates to P. berghei. The data set is described as follows: 4-day Peters' test, P. berghei-infected mouse malaria model. In kind it is in vivo. The settings on record: for Activity (%) / Survival / Parasite-free mice (n/total): once per day on 4 consecutive days. The procedure:
Finally, we tested BH267.meta in vivo in a P. berghei-infected mouse malaria model. For comparison, we included the established antimalarials chloroquine, mefloquine, and artesunate in the assay. Efficacy was determined by a 4-day Peters’ test ([20], [21]) after oral administration of 30, 10, and 3 mg kg^−1 day^−1 for each antimalarial for four consecutive days. At 4 × 3 mg kg^−1 treatment with BH267.meta, parasitemia was at 0.2% after 4 days, while doses of 10 mg kg^−1 and higher decreased the parasitemia below the limit of quantitation (LOQ) of 0.1%. […] Artesunate yielded lower activity at 4 × 3 mg kg^−1. The average survival after BH267.meta treatment was similar to that after artesunate treatment and ranged from 8.0 d (3 mg kg^−1) to 13.0 d (30 mg kg^−1) due to recurring parasitemia (Table 1).
(§1) In vivo efficacy of BH267.meta against P. berghei was determined as previously described ([20], [21]). Mice were infected with a GFP-transfected P. berghei ANKA strain (donated by A. P. Waters and C. J. Janse, Leiden University, Leiden, The Netherlands), and parasitemia was determined using standard flow cytometry techniques. The detection limit was 0.1%, i.e., 1 parasite in 1,000 erythrocytes. Activity was calculated as the difference between the mean parasitemia for the control and treated groups (n = 3, each) expressed relative to the control group. BH267.meta was dissolved (3 mg kg ^−1 doses) or suspended (all higher doses) in 70/30 Tween 80/ethanol, diluted 10-fold with water, and administered orally as four consecutive daily doses (4, 24, 48, and 72 h after infection). […] different doses of BH267.meta were analyzed (30, 10, and 3 mg kg ^−1). In vivo efficacy against P. falciparum was conducted at The Art of Discovery, Derio, Spain according to the standard assay previously described ([22], [23]). Animal experiments against P. berghei were carried out at the Swiss Tropical and Public Health Institute and adhered to local and national regulations of laboratory animal welfare in Switzerland (awarded permission no. 1731). Protocols are regularly reviewed and revised following approval by the local authority (Veterinäramt Basel Stadt).

Data set [1] relates to P. falciparum parasite culture. Also on record: method as in PMID 32816478. The settings on record: read-out: effectiveness in parasite culture; cited from earlier work.
The test system of data set [2] is P. falciparum 3D7 blood stages. The data set is described as follows: Stage-specific action of BH267.meta on synchronized parasites. The class given is cell-based, Plasmodium falciparum. The settings on record: IC90 of BH267.meta added at ring, trophozoite or schizont stage. The procedure:
Asynchronous cultures containing ~2% schizonts were purified using a 60% Percoll gradient and split into 4 tubes containing […] fresh blood and culture medium, shaken at 37°C for 30 min at 800 rpm to permit newly released merozoites to invade red blood cells, and then transferred into four 5-mL culture dishes. […] The cultures were maintained with daily medium changes and replenishment of IC90 BH267.meta when drug treatment had already commenced for a culture. Giemsa smear and flow cytometry were performed as described previously ([32]), and samples were taken at regular intervals (daily or every 12 h).

The test system of data set [3] is P. falciparum parasites with PfFNT G21E mutation. The data set is described as follows: EC50 determination by flow cytometry, drug-selected parasites with PfFNT G21E. In kind it is cell-based, Plasmodium falciparum. The following applies: parasites with G21E amino acid change vs 3D7 wild-type. The procedure: (§2) P. falciparum parasites, 3D7, were cultured in RPMI 1640 medium supplemented with 0.5% Albumax with 0+ erythrocytes (University Medical Center Hamburg-Eppendorf, Hamburg, Germany) at a 5% hematocrit at 37°C in an atmosphere containing 5% CO2, 1% O2, and 94% N2 under standard conditions ([31]). To obtain resistant parasites, 50 mL of parasite culture, starting with 5 × 10^8 to 6 × 10^8 parasites, were exposed to 3 × IC50 of either MMV007839 or BH267.meta until parasitemia was established again (around 2 weeks). For sequencing of the fnt gene, genomic DNA from the susceptible and resistant P. falciparum parasite lines was obtained from 5 mL of culture using the QIAamp DNA minikit (Qiagen, Hilden, Germany). The primer sequences used to sequence the entire fnt gene are available in Table S2. To determine the EC50, asynchronous parasites (0.5% to 1% starting parasitemia) were exposed to serial dilutions of the drug and grown for 2 days with one change of medium (including the appropriate concentration of drug), after which the parasitemia was determined using an LSR II FACS (BD Biosciences, Franklin Lakes, NJ) as previously described ([32]). The data were analyzed in GraphPad Prism to determine EC50 values.
On the technique in general: A flow cytometer gives signals particle by particle.

In a further data set the test system is P. falciparum. The data set is described as follows: P. falciparum SCID mouse model. In kind it is in vivo. The following applies: 50 mg kg−1 d−1 oral for four consecutive days, single animal; LOQ 0.01%. The procedure: In addition to the P. berghei efficacy assessment, we also evaluated BH267.meta in a P. falciparum severe combined immunodeficient (SCID) mouse model as previously described ([22], [23]). Efficacy was assessed following administration of 50 mg kg^−1 d^−1 for four consecutive days to a single animal (Fig. 7).
as §1, with “Animal experiments against P. berghei were carried out at the Swiss Tropical and Public Health Institute and adhered to local and national regulations of laboratory animal welfare in Switzerland (awarded permission no. 1731). Protocols are regularly reviewed and revised following approval by the local authority (Veterinäramt Basel Stadt).” left out

Data set [4] relates to P. falciparum parasites with PfFNT V196L mutation. The data set is described as follows: EC50 determination by flow cytometry, drug-selected parasites with PfFNT V196L. The class given is cell-based, Plasmodium falciparum. The settings on record: V196L mutation vs 3D7 wild-type. As to the method:
as §2

The values that follow come from publication PMC10433847, “The Plasmodium Lactate/H^+ Transporter PfFNT Is Essential and Druggable In Vivo” (Antimicrobial Agents and Chemotherapy, 2023).

Each structure is given as a SMILES string. pEC50: −log10 of the molar value.

For the compound `C[C@H]1[C@H](OC(=O)CCC(=O)O)O[C@@H]2O[C@@]3(C)CC[C@H]4[C@H](C)CC[C@@H]1[C@@]24OO3` [Artesunate, artesunate], the “Activity (%)” value was determined as 85.0% in the data set on P. berghei (3 mg kg−1 day−1 oral), 99.1% with P. berghei (10 mg kg−1 day−1 oral) and 99.0% in the data set with P. berghei (30 mg kg−1 day−1 oral). In addition, the “Survival” value came to 8.8 days in the data set on P. berghei (3 mg kg−1 day−1 oral), 8.1 days in the data set on P. berghei (10 mg kg−1 day−1 oral) and 9.2 days in the data set on P. berghei (30 mg kg−1 day−1 oral).
`O=C(/C=C(\O)C(F)(F)C(F)(F)F)c1cccnc1` [BH267.meta]: the pEC50 in data set [1] was 6.62. Also, the “Activity (%)” value with P. berghei (3 mg kg−1 day−1 oral) came to 99.7%; in the data set with P. berghei (10 mg kg−1 day−1 oral), 99.9%; in the data set with P. berghei (30 mg kg−1 day−1 oral), 99.8%. Moreover, the “Survival” value in the data set on P. berghei (3 mg kg−1 day−1 oral) came out at 8.0 days; with P. berghei (10 mg kg−1 day−1 oral) it was 10.7 days; in the data set on P. berghei (30 mg kg−1 day−1 oral) it was 13.0 days. Further, the “parasitemia after 4 days” value with P. berghei (4 × 3 mg kg−1 oral) is reported as 0.2%. In the data set on P. berghei (all tested doses (30, 10, 3 mg kg−1 day−1, 4 days oral)), this compound showed an efficacy of at least 99.7%. Besides, the parasitemia in the data set with P. berghei (doses of 10 mg kg−1 and higher, 4 days oral, LOQ 0.1%) was under 0.1%; with P. falciparum, under 0.01%. Further, the “symptoms or side effects elicited by the compound” value with P. berghei (mice under treatment, 3-30 mg kg−1 day−1 oral for 4 days) is “free of symptoms or side effects”. In the data set on P. berghei (mouse malaria models), this compound displayed an activity in mice of over 99%. Besides, in data set [2], the blood stage affected result was “specifically affects the trophozoite stage”. Besides, the “reduction in sensitivity compared to the 3D7 parasites” value (“reduction in sensitivity” for short) in data set [3] is recorded as “no alteration in the response”.
For `COc1ccc(C(=O)/C=C(\O)C(F)(F)C(F)(F)F)cc1` [BH296], the “fold increased IC50” value in data set [4] was 7.4 fold. Besides, the “reduction in sensitivity” value in data set [3] is 3.0 fold.
For `CCN(CC)CCCC(C)Nc1ccnc2cc(Cl)ccc12` (centres unmarked) [Chloroquine, chloroquine], the “Activity (%)” value is given as 99.0% in the data set with P. berghei (3 mg kg−1 day−1 oral), 99.9% with P. berghei (10 mg kg−1 day−1 oral) and 99.9% with P. berghei (30 mg kg−1 day−1 oral). Also, the results for the “Survival” value in the data set on P. berghei (3 mg kg−1 day−1 oral), in the data set with P. berghei (10 mg kg−1 day−1 oral) and with P. berghei (30 mg kg−1 day−1 oral) were 11.0 days, 15.5 days and 21.2 days, respectively.
On to `COc1ccc2c(c1)OC(O)(C(F)(F)C(F)(F)F)CC2=O` (centres unmarked) [MMV007839], for which the “reduction in sensitivity” value in data set [3] was determined as 8.4 fold.
Turning to `OC(c1cc(C(F)(F)F)nc2c(C(F)(F)F)cccc12)C1CCCCN1` (centres unmarked) [Mefloquine, mefloquine], in the data set on P. berghei (3 mg kg−1 day−1 oral), the “Activity (%)” value is on record as 93.0% and the “Survival” value came to 13.0 days. For the same compound, in the data set with P. berghei (10 mg kg−1 day−1 oral), the “Activity (%)” value is recorded as 99.9%, the “Parasite-free mice (n/total)” value is recorded as 1/5 and the “Survival” value was 21.0 days. In the data set on P. berghei (30 mg kg−1 day−1 oral), the “Activity (%)” value amounted to 99.9%, the “Parasite-free mice (n/total)” value is 4/5 and the “Survival” value stood at 29.1 days.
